According to the supplement of paper PMC8671470:
Structures can show the parent of a compound that is named as a salt.

Legend:
Experiment in all cases: cell viability (% survival relative to DMSO control, bortezomib = 0%); higher = less cytotoxic
Details in all cases: 72 h
[1] = tested on: KU-812
Summary of the method: (§1)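 Seeding density for each of the 10 AML and 5 CML cell lines was titrated to the linear growth range. Cells went into 384-well plates pre-printed in duplicate with compounds at 1, 10, 100, 1000 or 10000 nM and were held for 72 h at 37 °C with 5% CO2. CellTiter-Glo luminescence then provided the readout. Percent survival is expressed relative to vehicle at 100% and a 10 µM positive control at 0%, averaged over duplicates.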

[2] = tested on: LAMA-84
Summary of the method: as §1

[3] = tested on: ML-2
Summary of the method: as §1

[4] = tested on: MOLM-13
Summary of the method: as §1

[5] = tested on: MV4-11
Summary of the method: as §1

[6] = tested on: Mono-Mac-6
Summary of the method: as §1

[7] = tested on: NOMO-1
Summary of the method: as §1

[8] = tested on: SHI-1
Summary of the method: as §1

[9] = tested on: THP-1
Summary of the method: as §1

**Q.** Cc1cc(CS(=O)(=O)c2ccccc2)cc(OCc2ccc(CN3CCC[C@@H]3CO)cc2)c1 [PF-543 hydrochloride] was tested. Which cell viability ([1]; 1 nM) did it give?
**A.** 97.5%

**Q.** What about the cell viability ([1]; 10 nM) of the same molecule?
**A.** 91.6%

**Q.** And the cell viability ([1]; 100 nM)?
**A.** 97.7%

**Q.** And the cell viability ([1]; 1000 nM)?
**A.** 101%

**Q.** What about the cell viability ([1]; 10000 nM) of the same molecule?
**A.** 61%

**Q.** And the cell viability ([2]; 1 nM)?
**A.** 108%

**Q.** And the cell viability ([2]; 10 nM)?
**A.** 91.9%

**Q.** And the cell viability ([2]; 100 nM)?
**A.** 103%

**Q.** What about the cell viability ([2]; 1000 nM) of the same molecule?
**A.** 93.9%

**Q.** What about the cell viability ([2]; 10000 nM) of the same molecule?
**A.** 71.5%

**Q.** What about the cell viability ([3]; 1 nM) of the same molecule?
**A.** 89.8%

**Q.** And the cell viability ([3]; 10 nM)?
**A.** 97.3%

**Q.** And the cell viability ([3]; 100 nM)?
**A.** 130%

**Q.** What about the cell viability ([3]; 1000 nM) of the same molecule?
**A.** 91%

**Q.** And the cell viability ([3]; 10000 nM)?
**A.** 88.5%

**Q.** And the cell viability ([4]; 1 nM)?
**A.** 72.9%

**Q.** What about the cell viability ([4]; 10 nM) of the same molecule?
**A.** 110%

**Q.** What about the cell viability ([4]; 100 nM) of the same molecule?
**A.** 88.8%

**Q.** What about the cell viability ([4]; 1000 nM) of the same molecule?
**A.** 117%

**Q.** What about the cell viability ([4]; 10000 nM) of the same molecule?
**A.** 79.6%

**Q.** And the cell viability ([5]; 1 nM)?
**A.** 83.5%

**Q.** What about the cell viability ([5]; 10 nM) of the same molecule?
**A.** 104%

**Q.** What about the cell viability ([5]; 100 nM) of the same molecule?
**A.** 119%

**Q.** What about the cell viability ([5]; 1000 nM) of the same molecule?
**A.** 103%

**Q.** What about the cell viability ([5]; 10000 nM) of the same molecule?
**A.** 65.5%

**Q.** And the cell viability ([6]; 1 nM)?
**A.** 89.6%

**Q.** What about the cell viability ([6]; 10 nM) of the same molecule?
**A.** 84.7%

**Q.** What about the cell viability ([6]; 100 nM) of the same molecule?
**A.** 101%

**Q.** What about the cell viability ([6]; 1000 nM) of the same molecule?
**A.** 89.8%

**Q.** And the cell viability ([6]; 10000 nM)?
**A.** 82.9%

**Q.** And the cell viability ([7]; 1 nM)?
**A.** 89.2%

**Q.** What about the cell viability ([7]; 10 nM) of the same molecule?
**A.** 94.9%

**Q.** And the cell viability ([7]; 100 nM)?
**A.** 103%

**Q.** What about the cell viability ([7]; 1000 nM) of the same molecule?
**A.** 101%

**Q.** And the cell viability ([7]; 10000 nM)?
**A.** 93%

**Q.** And the cell viability ([8]; 1 nM)?
**A.** 82.3%

**Q.** And the cell viability ([8]; 10 nM)?
**A.** 109%

**Q.** What about the cell viability ([8]; 100 nM) of the same molecule?
**A.** 100%

**Q.** And the cell viability ([8]; 1000 nM)?
**A.** 84.8%

**Q.** What about the cell viability ([8]; 10000 nM) of the same molecule?
**A.** 87.9%

**Q.** What about the cell viability ([9]; 1 nM) of the same molecule?
**A.** 89.7%

**Q.** What about the cell viability ([9]; 10 nM) of the same molecule?
**A.** 95.5%

**Q.** What about the cell viability ([9]; 100 nM) of the same molecule?
**A.** 111%

**Q.** And the cell viability ([9]; 1000 nM)?
**A.** 94.8%

**Q.** And the cell viability ([9]; 10000 nM)?
**A.** 96.5%
